Experimental data reported in patent US20250302913A1, “LACRIPEP PROMOTES NEUROREGENERATION AND MAINTAINS EPITHELIAL PROGENITOR CELL IDENTITY” (The Regents of The University of California, priority 2022, published 2025).

System: intraepithelial sensory nerve terminals
Assay: Intraepithelial sensory nerve terminals by 3D imaging (IMARIS)
Type: in vivo, mouse
Details: day 7
From the text: We next determined the extent of functional reinnervation of the cornea at day 7 by assessing the distribution of sensory nerve endings (nerve terminals) within the epithelial layers in lacripep-treated Aire KO corneas compared to WT and PBS KO controls (FIG. 3D). Sensory nerve terminals within the corneal epithelium respond to changes in the thickness and stability of the tear film to promote basal tear secretion, while also triggering epithelial responses to restore homeostasis through the release of neurotransmitters. […]
Quantification of corneal epithelial nerve density and synapses. Tissue sections: TUBB3+ nerve density within 300 μm sections of central cornea epithelial ROI was quantified by applying Tsai's thresholding method (Moments), with integrated densities within the ROI of the thresholded image being recorded. Corneal whole mounts: The density of nerves expressing GAP43, TUBB3, or GAP43 and TUBB3 (% Area of 354 μm×396 μm) was quantified from central cornea images of whole mount cornea and plotted in a stacked bar graph to visualize the proportion of each of the three nerve types. Similarly, numbers of synapses marked by expression of GAP43, TUBB3, or GAP43 and TUBB3 were counted per respective region of central cornea (100 μm2) and plotted in a stacked bar graph. […]
3D reconstruction of nerve fibers. […] Touching nuclei were split by the calculated seed points inside each area.

## Ac-KQFIENGSEFAQKLLKKFSLLKPWA-NH2 [lacripep, amino terminus acetylated, carboxyl terminus aminated]
PBS 5, WT 78
  intraepithelial sensory nerve terminals: 50 per 0.1 mm^2
Compared to WT controls
  proportion of sensory nerve terminals expressing GAP43 as opposed to only TUBB3: increase
